Source: ChEMBL document CHEMBL3627677, “Novel 2H-chromen-2-one derivatives of resveratrol: Design, synthesis, modeling and use as human monoamine oxidase inhibitors” (Eur J Med Chem, 2015)

How the values were obtained:
[1] = species on record: Homo sapiens; experiment: Selectivity ratio of IC50 for recombinant human MAOA to IC50 for recombinant human MAOB
[2] = molecular target: T1, Amine oxidase [flavin-containing] A (Homo sapiens, UniProt P21397); experiment: Inhibition of recombinant human MAOA using p-tyramine as substrate assessed as H2O2 production preincubated for 15 mins followed by substrate addition by fluorometric analysis
T1 sequence (P21397 whole entry): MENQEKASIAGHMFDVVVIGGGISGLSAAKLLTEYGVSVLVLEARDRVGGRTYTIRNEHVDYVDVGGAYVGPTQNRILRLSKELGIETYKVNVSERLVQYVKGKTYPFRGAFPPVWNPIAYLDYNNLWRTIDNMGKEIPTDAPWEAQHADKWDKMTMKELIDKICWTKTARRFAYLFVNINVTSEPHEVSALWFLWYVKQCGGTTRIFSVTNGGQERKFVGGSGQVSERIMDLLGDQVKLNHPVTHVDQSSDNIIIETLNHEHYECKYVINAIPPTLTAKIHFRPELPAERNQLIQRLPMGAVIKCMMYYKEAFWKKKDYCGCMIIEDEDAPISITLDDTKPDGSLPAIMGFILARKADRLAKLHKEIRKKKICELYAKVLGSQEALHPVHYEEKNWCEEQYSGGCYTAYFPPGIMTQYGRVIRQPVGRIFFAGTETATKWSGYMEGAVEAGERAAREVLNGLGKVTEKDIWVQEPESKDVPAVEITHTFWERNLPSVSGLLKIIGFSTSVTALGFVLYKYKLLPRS

[3] = species on record: Homo sapiens; experiment: Selectivity ratio of IC50 for recombinant human MAOB to IC50 for recombinant human MAOA
[4] = molecular target: T2, Amine oxidase [flavin-containing] B (Homo sapiens, UniProt P27338); experiment: Inhibition of recombinant human MAOB using p-tyramine as substrate assessed as H2O2 production preincubated for 15 mins followed by substrate addition by fluorometric analysis
T2 sequence (P27338 whole entry): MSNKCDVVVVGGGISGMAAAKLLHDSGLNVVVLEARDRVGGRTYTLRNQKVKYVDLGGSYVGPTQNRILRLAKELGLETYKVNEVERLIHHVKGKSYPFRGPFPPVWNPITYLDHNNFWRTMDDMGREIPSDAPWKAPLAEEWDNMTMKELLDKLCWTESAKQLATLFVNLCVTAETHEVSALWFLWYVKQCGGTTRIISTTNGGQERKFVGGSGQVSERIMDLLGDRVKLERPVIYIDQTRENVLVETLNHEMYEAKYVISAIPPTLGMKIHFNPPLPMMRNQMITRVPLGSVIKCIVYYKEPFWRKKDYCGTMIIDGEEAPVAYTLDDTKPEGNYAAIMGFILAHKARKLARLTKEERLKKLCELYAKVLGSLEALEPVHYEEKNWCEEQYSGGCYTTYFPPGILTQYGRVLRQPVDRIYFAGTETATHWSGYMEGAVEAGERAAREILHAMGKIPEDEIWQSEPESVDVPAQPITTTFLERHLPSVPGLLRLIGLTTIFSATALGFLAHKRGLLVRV

[5] = Toxicity in SPF Kuming mouse assessed as death at 500 to 1000 mg/kg, po measured up to 14 days; format: organism-based; conditions: in vivo

Q: Which Ratio IC50 [1] does the source give for COc1ccc(/C=C/c2cc(OC)cc(OC)c2/C=C/C(=O)c2cc3cccc(OC)c3oc2=O)cc1 here?
A: > 2.68

Q: What about the IC50 [2] of the same compound?
A: > 60 µM

Q: What about the Ratio IC50 [3] of the same compound?
A: < 0.37

Q: What about the IC50 [4] of the same compound?
A: 22.4 µM

Q: For COc1ccc(/C=C/c2cc(OC)cc(OC)c2/C=C/C(=O)c2cc3ccc(OC)cc3oc2=O)cc1, which Ratio IC50 [1] is on record?
A: > 14.3

Q: And the IC50 [2]?
A: > 60 µM

Q: What about the Ratio IC50 [3] of the same compound?
A: < 0.07

Q: What about the IC50 [4] of the same compound?
A: 4.2 µM

Q: What does the source list for CCOc1cccc2cc(C(=O)/C=C/c3c(/C=C/c4ccc(OC)cc4)cc(OC)cc3OC)c(=O)oc12?
A: LD50 at 336 h [5]: > 1000 mg/kg; Ratio IC50 [1]: < 0.05; IC50 [2]: 3.2 µM; Ratio IC50 [3]: > 18.8; IC50 [4]: > 60 µM

Q: Which Ratio IC50 [1] does the source give for COc1ccc(/C=C/c2cc(OC)cc(OC)c2/C=C/C(=O)c2cc3c(OC)cc(OC)cc3oc2=O)cc1 here?
A: 0.6

Q: What about the IC50 [2] of the same compound?
A: 21.2 µM

Q: And the Ratio IC50 [3]?
A: 1.67

Q: What about the IC50 [4] of the same compound?
A: 35.5 µM

Q: What does the source list for COc1ccc(/C=C/c2cc(OC)cc(OC)c2/C=C/C(=O)c2cc3cc(F)ccc3oc2=O)cc1?
A: Ratio IC50 [1]: 4.36; IC50 [2]: 44.3 µM; Ratio IC50 [3]: 0.23; IC50 [4]: 10.2 µM

Q: With COc1ccc(/C=C/c2cc(OC)cc(OC)c2/C=C/C(=O)c2cc3cc(Cl)ccc3oc2=O)cc1 as the compound, how does the IC50 [2] read?
A: > 60 µM

Q: What about the IC50 [4] of the same compound?
A: > 60 µM

Q: Which Ratio IC50 [1] does the source give for COc1ccc(/C=C/c2cc(OC)cc(OC)c2/C=C/C(=O)c2cc3c(OC)cccc3oc2=O)cc1 here?
A: > 4.13

Q: What about the IC50 [2] of the same compound?
A: > 60 µM

Q: And the Ratio IC50 [3]?
A: < 0.24

Q: And the IC50 [4]?
A: 14.5 µM

Q: Which results are given for COc1ccc(/C=C/c2cc(OC)cc(OC)c2/C=C/C(=O)c2cc3cc(Br)ccc3oc2=O)cc1?
A: Ratio IC50 [1]: < 0.2; IC50 [2]: 12.1 µM; Ratio IC50 [3]: > 4.95; IC50 [4]: > 60 µM

Q: With C=CCc1cc(OC)c2oc(=O)c(C(=O)/C=C/c3c(/C=C/c4ccc(OC)cc4)cc(OC)cc3OC)cc2c1 as the compound, how does the Ratio IC50 [1] read?
A: 0.1

Q: And the IC50 [2]?
A: 5.3 µM

Q: What about the Ratio IC50 [3] of the same compound?
A: 9.53

Q: And the IC50 [4]?
A: 50.5 µM

Q: Which results are given for COc1ccc(/C=C/c2cc(OC)cc(OC)c2/C=C/C(=O)c2cc3cc(Br)cc(OC)c3oc2=O)cc1?
A: IC50 [2]: > 60 µM; IC50 [4]: > 60 µM

Q: Which results are given for COc1ccc(/C=C/c2cc(OC)cc(OC)c2/C=C/C(=O)c2cc3cccc(Br)c3oc2=O)cc1?
A: IC50 [2]: > 60 µM; IC50 [4]: > 60 µM

Q: With COc1ccc(/C=C/c2cc(OC)cc(OC)c2/C=C/C(=O)c2cc3cc(C)ccc3oc2=O)cc1 as the compound, how does the Ratio IC50 [1] read?
A: 5.97

Q: And the IC50 [2]?
A: 30.4 µM

Q: And the Ratio IC50 [3]?
A: 0.17

Q: And the IC50 [4]?
A: 5.09 µM

Q: Which Ratio IC50 [1] does the source give for COc1ccc(/C=C/c2cc(OC)cc(OC)c2/C=C/C(=O)c2cc3ccccc3oc2=O)cc1 here?
A: 4.54

Q: What about the IC50 [2] of the same compound?
A: 41.7 µM

Q: And the Ratio IC50 [3]?
A: 0.22

Q: What about the IC50 [4] of the same compound?
A: 9.17 µM

Q: Which Ratio IC50 [1] does the source give for COc1ccc(/C=C/c2cc(OC)cc(OC)c2/C=C/C(=O)c2cc3ccc(Cl)cc3oc2=O)cc1 here?
A: > 8.15

Q: What about the IC50 [2] of the same compound?
A: > 60 µM

Q: And the Ratio IC50 [3]?
A: < 0.12

Q: What about the IC50 [4] of the same compound?
A: 7.36 µM

Q: For COc1ccc(/C=C/c2cc(OC)cc(OC)c2/C=C/C(=O)c2cc3ccc(Br)cc3oc2=O)cc1, which Ratio IC50 [1] is on record?
A: 0.05

Q: What about the IC50 [2] of the same compound?
A: 3.01 µM

Q: What about the Ratio IC50 [3] of the same compound?
A: 18.4

Q: And the IC50 [4]?
A: 55.3 µM

Q: What does the source list for COc1ccc(/C=C/c2cc(OC)cc(OC)c2/C=C/C(=O)c2cc3ccc(C)cc3oc2=O)cc1?
A: LD50 at 336 h [5]: > 1000 mg/kg; Ratio IC50 [1]: 20.9; IC50 [2]: 58.2 µM; Ratio IC50 [3]: 0.05; IC50 [4]: 2.78 µM

Q: For COc1ccc(/C=C/c2cc(OC)cc(OC)c2/C=C/C(=O)c2cc3cccc(C)c3oc2=O)cc1, which Ratio IC50 [1] is on record?
A: > 3

Q: And the IC50 [2]?
A: > 60 µM

Q: What about the Ratio IC50 [3] of the same compound?
A: < 0.33

Q: And the IC50 [4]?
A: 20 µM

Q: With COc1ccc(/C=C/c2cc(OC)cc(OC)c2/C=C/C(=O)c2cc3ccc(N(C)C)cc3oc2=O)cc1 as the compound, how does the IC50 [4] read?
A: > 60 µM

Q: For CCOc1ccc2cc(C(=O)/C=C/c3c(/C=C/c4ccc(OC)cc4)cc(OC)cc3OC)c(=O)oc2c1, which Ratio IC50 [1] is on record?
A: 0.15

Q: And the IC50 [2]?
A: 7.07 µM

Q: What about the Ratio IC50 [3] of the same compound?
A: 6.8

Q: And the IC50 [4]?
A: 48.1 µM

Q: With COc1ccc(/C=C/c2cc(OC)cc(OC)c2/C=C/C(=O)c2cc3cc(OC)ccc3oc2=O)cc1 as the compound, how does the IC50 [2] read?
A: > 60 µM

Q: What about the IC50 [4] of the same compound?
A: > 60 µM
